Laboratory results published in US20010011063A1, “Substituted 2,4-diamino-1,3,5-triazines, processes for their preparation and their use as herbicides and plant growth regulators” (priority 1999, published 2001).

Tests used:
Assay type in all cases: in vivo
[1] = test system: Stellaria media, Lolium multiflorum, Amaranthus retroflexus, Sinapis alba, Avena sativa and Settaria viridis; assay: Pre-emergence effect on weeds (greenhouse pot test); details: application rate of 1 kg or less of active substance per hectare; visually scored after 3 to 4 weeks by comparison with untreated controls
Description: Seeds or rhizome pieces of mono and dicotyledonous weed plants are placed in sandy loam soil in plastic pots and covered with soil. The compounds according to the invention which are formulated in the form of wettable powders or emulsion concentrates are then applied to the soil cover in the form of aqueous suspensions or emulsions at an application rate of 600 to 800 l of water/ha (converted), in various dosages.

[2] = test system: Sinapis alba, Echinochloa crus-galli, Lolium multiforum, Stellaria media, Cyperus iria, Amaranthus retroflexus, Settaria viridis and Avena sativa; assay: Post-emergence effect on weeds (greenhouse pot test); details: application rate of 1 kg or less of active substance per hectare; treated at the three-leaf stage; scored visually after about 3 to 4 weeks vs untreated controls
Description: Seeds or rhizome pieces of mono- and dicotyledonous weeds are placed in sandy loam soil in plastic pots, covered with soil and grown in a greenhouse under good growth conditions. Three weeks after sowing, the test plants are treated at the three-leaf stage. The compounds according to the invention, formulated as wettable powders or emulsion concentrates, are sprayed, at various dosages, onto the green parts of the plants at an application rate of 600 to 800 l of water/ha (converted). After the test plants had remained in the greenhouse for about 3 to 4 weeks under optimum growth conditions, the effect of the preparations is scored visually by comparison with untreated controls. The agents according to the invention also have good herbicidal activity post-emergence against a broad spectrum of economically important weed grasses and broad-leaved weeds.

[3] = test system: Cyperus monti, Echinochloa crus-galli and Sagitaria pygmaea; assay: Action on harmful plants in rice (paddy rice conditions); details: poured into the dammed water, visual scoring about three weeks after application; also: test concentration or dose not given here
Description: Transplanted and sown rice and also typical rice weeds (gramineous and broad-leaved) are cultivated in closed plastic pots in a greenhouse to the three-leaf stage (Echinochloa crus-galli 1.5-leaf) under paddy rice conditions (height of water: 2-3 cm). This is followed by treatment with the compounds according to the invention. For this purpose, the formulated active compounds are suspended, dissolved or emulsified in water and applied by pouring them into the dammed water around the test plants in different dosages.

CC(C)Cc1nc(N)nc(NC(CCCc2ccccc2)C2CCC2)n1 (stereo not drawn) [Example 4-59]
very good herbicidal activity: herbicidal activity pre-emergence against harmful plants [1] | herbicidal activity post-emergence against harmful plants [2] | herbicidal activity against harmful plants which are typical for rice crops [3]

CC(C)c1nc(N)nc(N[C@H](CCCCc2ccccc2)C2CC2)n1 [Example 6-43]
very good herbicidal activity: herbicidal activity pre-emergence against harmful plants [1] | herbicidal activity post-emergence against harmful plants [2] | herbicidal activity against harmful plants which are typical for rice crops [3]

Cc1cccc(CC[C@@H](Nc2nc(N)nc(C(C)C)n2)C2CCC2)c1 [Example 2-27]
very good herbicidal activity: herbicidal activity pre-emergence against harmful plants [1] | herbicidal activity post-emergence against harmful plants [2] | herbicidal activity against harmful plants which are typical for rice crops [3]

CC(C)Cc1nc(N)nc(NC(CCCc2ccccc2)C2CCC2)n1 (stereo not drawn) [Example 3-59]
very good herbicidal activity: herbicidal activity pre-emergence against harmful plants [1] | herbicidal activity post-emergence against harmful plants [2] | herbicidal activity against harmful plants which are typical for rice crops [3]

CC(C)(F)c1nc(N)nc(N[C@@H](CCc2ccccc2)C2CCC2)n1 [Example 1-15]
very good herbicidal activity: herbicidal activity pre-emergence against harmful plants [1] | herbicidal activity post-emergence against harmful plants [2] | herbicidal activity against harmful plants which are typical for rice crops [3]

CC(C)(F)c1nc(N)nc(N[C@@H](CCc2cccc(Cl)c2)C2CCC2)n1 [Example 1-24]
very good herbicidal activity: herbicidal activity pre-emergence against harmful plants [1] | herbicidal activity post-emergence against harmful plants [2] | herbicidal activity against harmful plants which are typical for rice crops [3]

CC(C)(F)c1nc(N)nc(N[C@H](CCCCc2ccccc2)C2CC2)n1 [Example 6-44]
very good herbicidal activity: herbicidal activity pre-emergence against harmful plants [1] | herbicidal activity post-emergence against harmful plants [2] | herbicidal activity against harmful plants which are typical for rice crops [3]

COc1cccc(CCCC(Nc2nc(N)nc(C(C)C)n2)C2CCC2)c1 (stereo not drawn) [Example 4-75]
very good herbicidal activity: herbicidal activity pre-emergence against harmful plants [1] | herbicidal activity post-emergence against harmful plants [2] | herbicidal activity against harmful plants which are typical for rice crops [3]

COc1cccc(CCCC(Nc2nc(N)nc(C(C)(C)F)n2)C2CCC2)c1 (stereo not drawn) [Example 4-76]
very good herbicidal activity: herbicidal activity pre-emergence against harmful plants [1] | herbicidal activity post-emergence against harmful plants [2] | herbicidal activity against harmful plants which are typical for rice crops [3]

CC(C)Cc1nc(N)nc(NC(Cc2ccccc2)CC2CC2)n1 (stereo not drawn) [Example 5-1]
very good herbicidal activity: herbicidal activity pre-emergence against harmful plants [1] | herbicidal activity post-emergence against harmful plants [2] | herbicidal activity against harmful plants which are typical for rice crops [3]
